# Measured values as given in US20090326003A1, “PYRAZOLO (3, 4-B) PYRIDINE DERIVATIVES AS PDE4 INHIBITORS” (priority 2006, published 2009).
# Target: T1, PDE4B (human recombinant) (Homo sapiens, UniProt Q07343)
# T1 construct: made in house
# Assay: PDE4B inhibition, fluorescence polarisation (FP) and/or SPA assay
# Assay type: biochemical
# Details: n=1 or average of 2 or more readings, accuracy ±about 0.5 log unit, read-out: PDE4B pIC50 (generally in FP assay) (±about 0.5) (converted)
# Text: Human recombinant PDE4B, in particular the 2B splice variant thereof (HSPDE4B2B), is disclosed in WO 94/20079 and also M. M. McLaughlin et al., “A low Km, rolipram-sensitive, cAMP-specific phosphodiesterase from human brain: cloning and expression of cDNA, biochemical characterisation of recombinant protein, and tissue distribution of mRNA”, J. Biol. Chem., 1993, 268, 6470-6476. For example, in Example 1 of WO 94/20079, human recombinant PDE4B is described as being expressed in the PDE-deficient yeast Saccharomyces cerevisiae strain GL62, e.g. after induction by addition of 150 uM CuSO4, and 100,000×g supernatant fractions of yeast cell lysates are described for use in the harvesting of PDE4B enzyme.
# The ability of compounds to inhibit catalytic activity at PDE4B or 4D (human recombinant), PDE3 (from bovine aorta), PDE5 (human recombinant) or PDE6 (from bovine retina) can optionally be determined by Scintillation Proximity Assay (SPA) in a 96-well format.
# Test compounds (as a solution in DMSO, preferably about 2 microliter (ul) volume of DMSO solution) are preincubated at ambient temperature (room temperature, e.g. 19-23° C.) in Wallac Isoplates (code 1450-514) with PDE enzyme in 50 mM Tris-HCl buffer pH 7.5, 8.3 mM MgCl2, 1.7 mM EGTA, 0.05% (w/v) bovine serum albumin for 10-30 minutes (usually 30 minutes). The enzyme concentration is adjusted so that no more than 20% hydrolysis of the substrate defined below occurs in control wells without compound, during the incubation. For the PDE3, PDE4B and PDE4D assays, [5′,8-3H]Adenosine 3′,5′-cyclic phosphate (Amersham Pharmacia Biotech, code TRK.559; or Amersham Biosciences UK Ltd, Pollards Wood, Chalfont St Giles, Buckinghamshire HP8 4SP, UK) is added to give 0.05 uCi per well and about 10 nM final concentration. For the PDE5 and PDE6 assays, [8-^3H]Guanosine 3′,5′-cyclic phosphate (Amersham Pharmacia Biotech, code TRK.392) is added to give 0.05 uCi per well and about 36 nM final concentration. Plates containing assay mixture, preferably approx. 100 ul volume of assay mixture, are mixed on an orbital shaker for 5 minutes and incubated at ambient temperature for 1 hour. Phosphodiesterase SPA beads (Amersham Pharmacia Biotech, code RPNQ 0150) are added (about 1 mg per well) to terminate the assay. Plates are sealed and shaken and allowed to stand at ambient temperature for 35 minutes to 1 hour (preferably 35 minutes) to allow the beads to settle. Bound radioactive product is measured using a WALLAC TRILUX 1450 Microbeta scintillation counter. For inhibition curves, 10 concentrations (e.g. 1.5 nM-30 uM) of each compound are assayed. Curves are analysed using ActivityBase and XLfit (ID Business Solutions Limited, 2 Ocean Court, Surrey Research Park, Guildford, Surrey GU2 7QB, United Kingdom) Results are expressed as pIC50 values.
# The ability of compounds to inhibit catalytic activity at PDE4B (human recombinant) or PDE4D (human recombinant) can optionally be determined by IMAP Fluorescence Polarisation (FP) assay (IMAP Explorer kit, available from Molecular Devices Corporation, Sunnydale, Calif., USA; Molecular Devices code: R8062) in 384-well format.
# The IMAP FP assay is able to measure PDE activity in an homogenous, non-radioactive assay format. The FP assay uses the ability of immobilised trivalent metal cations, coated onto nanoparticles (tiny beads), to bind the phosphate group of FI-AMP that is produced on the hydrolysis of fluorescein-labelled (FI) cyclic adenosine mono-phosphate (FI-cAMP) to the non-cyclic FI-AMP form. […] Binding of FI-AMP product to the beads (coated with the immobilised trivalent cations) slows the rotation of the bound FI-AMP and leads to an increase in the fluorescence polarisation ratio of parallel to perpendicular light. Inhibition of the PDE reduces/inhibits this signal increase. […]
# T1 sequence (Q07343 1-564 isoform Q07343-2): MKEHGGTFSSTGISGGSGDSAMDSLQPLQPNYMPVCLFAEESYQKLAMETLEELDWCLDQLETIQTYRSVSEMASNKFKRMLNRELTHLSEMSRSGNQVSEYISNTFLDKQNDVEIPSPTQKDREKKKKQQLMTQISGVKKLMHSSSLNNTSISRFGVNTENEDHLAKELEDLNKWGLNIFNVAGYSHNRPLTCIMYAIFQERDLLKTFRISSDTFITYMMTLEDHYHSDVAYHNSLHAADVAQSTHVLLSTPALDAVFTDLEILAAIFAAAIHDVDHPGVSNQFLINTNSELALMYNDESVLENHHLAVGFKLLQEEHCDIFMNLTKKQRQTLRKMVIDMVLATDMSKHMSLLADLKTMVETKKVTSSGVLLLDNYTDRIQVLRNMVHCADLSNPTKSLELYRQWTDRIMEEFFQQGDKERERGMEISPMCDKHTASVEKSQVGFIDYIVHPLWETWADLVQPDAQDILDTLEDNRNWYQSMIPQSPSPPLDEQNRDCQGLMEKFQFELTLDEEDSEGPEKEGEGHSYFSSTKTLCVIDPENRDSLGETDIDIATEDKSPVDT
row,IC50 [nM],Structure (SMILES)
1,~0.158,"CCc1nc2c(cnn2CC)c(NC2CCOCC2)c1CNC(=O)c1ccc(-c2ccc(C(=O)NCc3c(CC)nc4c(cnn4CC)c3NC3CCOCC3)cc2)cc1 [Example 23, N,N′-bis{[1,6-diethyl-4-(tetrahydro-2H-pyran-4-ylamino)-1H-pyrazolo[3,4-b]pyridin-5-yl]methyl}-4,4′-biphenyldicarboxamide]"
2,~0.1,"CCn1ncc2c(NC3CCOCC3)c(CNC(=O)c3cccc(-c4cccc(C(=O)NCc5c(C)nc6c(cnn6CC)c5NC5CCOCC5)c4)c3)c(C)nc21 [Example 29, N,N′-bis{[1-ethyl-6-methyl-4-(tetrahydro-2H-pyran-4-ylamino)-1H-pyrazolo[3,4-b]pyridin-5-yl]methyl}-3,3′-biphenyldicarboxamide]"
3,~0.0398,"CCc1nc2c(cnn2CC)c(NC2CCOCC2)c1CNC(=O)c1ccc(C(=O)NCc2c(CC)nc3c(cnn3CC)c2NC2CCOCC2)o1 [Example 35, N,N′-bis{[1,6-diethyl-4-(tetrahydro-2H-pyran-4-ylamino)-1H-pyrazolo[3,4-b]pyridin-5-yl]methyl}-2,5furandicarboxamide]"
